ChEMBL document CHEMBL1201862, “PubChem BioAssay data set” (2004)
Active and inactive are the calls of the source.

Assays:
[1] = molecular target: Cytochrome P450 3A4 (Homo sapiens, UniProt P08684);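 also: CYP3A4 tested as one member of a cytochrome P450 panel screen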
[2] = molecular target: Cytochrome P450 2D6 (Homo sapiens, UniProt P10635);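 also: CYP2D6 member of a cytochrome P450 panel assay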
[3] = molecular target: Cytochrome P450 2C19 (Homo sapiens, UniProt P33261); test: Cytochrome panel assay with activity outcomes. Panel member name: p450-cyp2c19 Compounds with AC50 equal or less than 10 uM are considered active; assay type: functional
Chain of Cytochrome P450 2C19 (P33261 whole entry): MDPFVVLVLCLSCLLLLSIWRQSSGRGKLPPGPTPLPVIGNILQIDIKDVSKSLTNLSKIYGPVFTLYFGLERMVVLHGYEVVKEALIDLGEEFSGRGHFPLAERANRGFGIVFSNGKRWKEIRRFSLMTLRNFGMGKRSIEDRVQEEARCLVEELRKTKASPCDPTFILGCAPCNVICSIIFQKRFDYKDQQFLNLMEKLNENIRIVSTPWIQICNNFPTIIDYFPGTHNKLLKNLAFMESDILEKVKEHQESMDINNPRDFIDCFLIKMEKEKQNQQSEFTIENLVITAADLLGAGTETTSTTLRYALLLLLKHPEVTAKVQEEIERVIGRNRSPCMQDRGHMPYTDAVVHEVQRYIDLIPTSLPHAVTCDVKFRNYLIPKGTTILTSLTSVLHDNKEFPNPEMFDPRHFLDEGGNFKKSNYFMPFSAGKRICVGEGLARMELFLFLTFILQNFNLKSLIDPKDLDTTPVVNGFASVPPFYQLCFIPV

[4] = luciferase reporter signal suppression in cells – H4 neuroglioma cells, luminescence, dose response (AID 1990); assay type: functional, cell-based
[5] = Luminescence Cell-Based Dose Response HTS to Identify Inhibitors of 5'UTR Stem-Loop Driven Prion Protein mRNA Translation in H4 Neuroglioblastoma Cells. [Related pubchem assays: 1827 (Project Summary), 1813 (Primary HTS)]; assay type: functional
[6] = alpha-synuclein stem-loop luciferase translation blockers – H4 neuroglioma cells, luminescence, confirmation (AID 1988); assay type: functional, cell-based
[7] = fluconazole-exposed Candida albicans growth modulators – fluorescence, retest, confirmation (AID 2467); assay type: functional, cell-based
[8] = NIH-3T3 fibroblast cytotoxicity, dose response, cytotoxicity control, cell-based, fluorescence, Alamar Blue, secondary assay (AID 2327); assay type: functional;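 also: NIH-3T3 mouse fibroblasts cultured with fluconazole at 8 µg/mL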
[9] = test system: INS1; test: INS-1E survival protection against cytokine death – cell-based, luminescence, retest, dose response (AID 449756); assay type: functional; conditions: Rattus norvegicus;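 also: cell death triggered by IL-1 beta plus TNF-alpha plus IFN-gamma mixture; protective hits raise ATP signal compared with cytokine alone wells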
[10] = Luminescence Cell-Based Dose Retest to Confirm Inhibitors of Cancer Stem Cells. [Related pubchem assays (depositor defined):AID2717, AID2721]; assay type: functional; conditions: Homo sapiens
[11] = viability of uninfected HEp-2 cells – cell-based, HTS, cytotoxicity control for RSV inhibitor project, dose response (AID 2410); assay type: functional; conditions: human respiratory syncytial virus
[12] = test system: H4; test: Luminescence Cell-Based Dose Response HTS to Identify Activators of 5'UTR Stem-Loop Driven Prion Protein mRNA Translation in H4 Neuroglioblastoma Cells. [Related pubchem assays: 1829 (Project Summary), 1814 (Primary HTS)]; assay type: functional; conditions: Homo sapiens
[13] = Luminescence Cell-Based Dose Response HTS to Identify Activators of Luciferase Translation or Activity in H4 […] Cells. [Related pubchem assays: 1829 (Project Summary), 1814 (Primary HTS)]; assay type: functional
[14] = molecular target: T1, Streptokinase A (Streptococcus pyogenes serotype M1, UniProt P10520); test: viability-normalized secreted streptokinase activity reduction – plasminogen activation absorbance, OD405, dose response (AID 1914); assay type: functional, Streptococcus pyogenes M1 GAS;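 also: secreted streptokinase activity via plasminogen activation per viability signal from cell pellet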
T1 sequence (P10520 whole entry): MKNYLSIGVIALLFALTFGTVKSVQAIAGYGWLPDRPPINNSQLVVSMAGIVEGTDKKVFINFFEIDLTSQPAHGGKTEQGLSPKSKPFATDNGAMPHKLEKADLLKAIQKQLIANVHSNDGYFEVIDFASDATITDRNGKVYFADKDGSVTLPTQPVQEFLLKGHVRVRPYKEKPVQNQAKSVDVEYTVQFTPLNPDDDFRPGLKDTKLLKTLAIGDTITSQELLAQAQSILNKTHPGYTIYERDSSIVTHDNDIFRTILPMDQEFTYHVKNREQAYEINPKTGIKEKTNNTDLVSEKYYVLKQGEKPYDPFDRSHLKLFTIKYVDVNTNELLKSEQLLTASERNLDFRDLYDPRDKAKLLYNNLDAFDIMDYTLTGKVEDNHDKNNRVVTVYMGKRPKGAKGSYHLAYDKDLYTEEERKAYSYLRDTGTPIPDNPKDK

[15] = test system: Streptococcus sp. 'group A'; test: Streptococcus pyogenes SK(-)GAS viability under kanamycin – luminescence, BacTiterGlo, confirmation, counter-screen for streptokinase expression inhibitor project, dose response (AID 1900); assay type: functional, organism-based
[16] = test system: Streptococcus; test: GAS UMAA2166 growth inhibition – luminescence, BacTiterGlo, counter-screen for streptokinase expression inhibitor project, dose response (AID 1915); assay type: functional, organism-based;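 also: potency for reduction of bacterial viability or growth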
[17] = molecular target: Paired box protein Pax-8 (Homo sapiens, UniProt Q06710); test: PAX8 transcriptional activity inhibition in RMG-I – RMG-I cells, luciferase, cherry-pick, dose response (AID 687027); assay type: functional, cell-based;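 also: luciferase reporter driven by Pax8 target thyroperoxidase promoter measured by SteadyGlo luminescence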
Chain of Paired box protein Pax-8 (Q06710 whole entry): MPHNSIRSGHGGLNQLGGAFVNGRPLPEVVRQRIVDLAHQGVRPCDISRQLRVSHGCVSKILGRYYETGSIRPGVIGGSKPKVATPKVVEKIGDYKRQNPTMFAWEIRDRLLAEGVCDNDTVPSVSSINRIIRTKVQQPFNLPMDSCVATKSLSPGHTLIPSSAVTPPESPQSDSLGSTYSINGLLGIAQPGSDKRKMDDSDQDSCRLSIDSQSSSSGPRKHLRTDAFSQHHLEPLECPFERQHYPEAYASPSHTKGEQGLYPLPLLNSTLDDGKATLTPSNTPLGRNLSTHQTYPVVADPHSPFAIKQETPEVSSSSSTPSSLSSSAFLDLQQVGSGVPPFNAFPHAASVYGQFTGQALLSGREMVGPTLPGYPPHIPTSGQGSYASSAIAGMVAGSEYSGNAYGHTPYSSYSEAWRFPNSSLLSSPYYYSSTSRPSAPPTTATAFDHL

[18] = viability of HCT116 lacking mutant beta-catenin – cell-based, human colon tumor, dose response (AID 1045); assay type: functional;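 also: HCT116 colon tumor cells with beta catenin knocked out; cells exposed to compound for 60 hours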

Chain of Cytochrome P450 2D6 (P10635 whole entry): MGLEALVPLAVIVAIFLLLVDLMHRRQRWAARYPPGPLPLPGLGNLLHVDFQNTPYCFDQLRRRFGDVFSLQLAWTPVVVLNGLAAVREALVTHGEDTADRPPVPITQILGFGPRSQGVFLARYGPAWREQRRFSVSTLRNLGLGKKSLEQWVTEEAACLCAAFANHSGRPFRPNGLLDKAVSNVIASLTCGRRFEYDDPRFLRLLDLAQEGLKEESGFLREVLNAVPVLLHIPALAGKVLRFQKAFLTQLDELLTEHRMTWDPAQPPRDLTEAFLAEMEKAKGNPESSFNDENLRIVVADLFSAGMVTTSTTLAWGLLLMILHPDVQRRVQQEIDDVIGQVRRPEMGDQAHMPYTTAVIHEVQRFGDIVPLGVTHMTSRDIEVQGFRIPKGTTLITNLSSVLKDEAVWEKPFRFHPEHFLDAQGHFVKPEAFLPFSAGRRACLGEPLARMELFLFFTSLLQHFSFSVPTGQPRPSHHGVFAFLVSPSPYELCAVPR
Chain of Cytochrome P450 3A4 (P08684 whole entry): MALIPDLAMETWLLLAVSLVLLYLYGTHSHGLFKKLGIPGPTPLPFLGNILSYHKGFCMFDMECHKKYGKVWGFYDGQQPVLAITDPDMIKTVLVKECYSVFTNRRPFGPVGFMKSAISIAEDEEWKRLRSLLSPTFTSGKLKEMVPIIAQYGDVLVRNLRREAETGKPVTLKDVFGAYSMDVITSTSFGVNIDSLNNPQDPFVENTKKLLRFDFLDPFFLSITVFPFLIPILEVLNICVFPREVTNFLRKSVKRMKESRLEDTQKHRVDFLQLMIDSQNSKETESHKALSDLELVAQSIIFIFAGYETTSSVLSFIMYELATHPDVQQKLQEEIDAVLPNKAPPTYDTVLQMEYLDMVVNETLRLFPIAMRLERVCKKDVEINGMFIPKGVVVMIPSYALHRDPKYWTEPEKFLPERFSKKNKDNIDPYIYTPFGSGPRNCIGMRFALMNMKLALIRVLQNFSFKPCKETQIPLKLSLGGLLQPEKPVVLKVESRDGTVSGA

COc1ccc(COC(=O)N/N=C2/C[C@@H](O)[C@@H](O)[C@@H]3[C@H]4C(=O)N(c5ccc(F)cc5F)C(=O)[C@@H]4CC[C@H]23)cc1
AC50 [1]: 6.31 µM (inconclusive)

O=C(NCc1ccco1)Nc1cccs1
AC50 [2]: 14.1 µM (inconclusive) | AC50 [1]: 20 µM (inconclusive)

CN(C)c1nc(-c2ccoc2)nc2ccccc12
AC50 ([3]; read-out: AC50): 31.6 µM (inconclusive) | AC50 [2]: 39.8 µM (inconclusive) | AC50 [1]: 25.1 µM (inconclusive)

O=C(Nc1cnc2ccccc2c1)c1cccc(-n2cnnn2)c1
AC50 [2]: 7.94 µM (inconclusive)

Cc1ccc(-n2nc3c(N4CCC(C(=O)NCCc5cccs5)CC4)nnc(C)c3c2C)cc1
EC50 [4]: 19.2 µM (active) | EC50 [5]: > 120 µM (not active)

COC(=O)c1cn(S(=O)(=O)c2ccccc2)c2ccccc12
EC50 [6]: > 120 µM (not active) | EC50 [4]: > 120 µM (not active) | EC50 [5]: > 120 µM (not active)

CC(C)CCNC(=O)C(c1ccco1)N(Cc1ccc(F)cc1)C(=O)c1snc(C(N)=O)c1N (stereo not drawn)
EC50 [7]: > 38 µM (not active) | EC50 [8]: 26.5 µM (active)

COCCCNC(=O)Cn1nnc(-c2ccc(NC(=O)c3cccnc3)cc2)n1
AC50 [9]: 3.95 µM (active)

CC(C)NC(=O)C(C)n1cccc1C(=O)c1ccccc1 (stereo not drawn)
AC50 [1]: 15.8 µM (inconclusive)

CC1(C)C=Cc2c(ccc3c2OC[C@@H](c2ccc(O)cc2O)C3)O1 [GLABRIDIN]
AC50 [10]: 6.05 µM (active) | CC50 [11]: 13.4 µM (active)

Oc1nc2c(-c3cccc(Br)c3)nnn2c2ccccc12
EC50 [12]: 18.8 µM (active) | EC50 [13]: 0.258 µM (active)

Oc1ncnc2c1sc1nc3c(c(-c4ccc(Cl)cc4)c12)CCC3
CC50 [11]: > 50 µM (active)

COc1cc(OC)cc(N(C(=O)C2COc3ccccc3O2)C(C(=O)NC2CCCCC2)c2ccc(O)cc2)c1 (stereo not drawn)
EC50 [7]: 0.798 µM (inconclusive) | EC50 [8]: 94.7 µM (active)

NC(CC(=O)Nc1cc(C(F)(F)F)ccc1Cl)=NO
AC50 [3]: inconclusive | AC50 [1]: 3.98 µM (inconclusive)

CC(=O)NCCNc1nc(-c2ccc(N(C)C)cc2)nc2ccccc12
AC50 [2]: 20 µM (inconclusive) | AC50 [1]: 10 µM (inconclusive)

CCOC(=O)c1[nH]c(C)c(C(=O)C2=C(O)C(=O)N(CCN3CCOCC3)C2c2cccs2)c1C (stereo not drawn)
AC50 [1]: 14.1 µM (inconclusive)

CCCC1CCC(c2ccc(C(=O)NN)cc2)CC1 (stereo not drawn)
AC50 [9]: 10.9 µM (active)

CCC(=O)c1ccc(OCC(O)CN2CCCCC2)cc1.Cl (stereo not drawn)
AC50 [3]: inconclusive | AC50 [2]: 39.8 µM (inconclusive)

Cc1cc(C)cc(NC(=O)NCC(O)COc2ccc([N+](=O)[O-])cc2)c1 (stereo not drawn)
CC50 [11]: > 50 µM (active)

COc1ccc(-c2nn(-c3ccccc3)cc2/C=C\C(=O)Nc2ccc(C(=O)O)cc2)cc1
CC50 [11]: 26.4 µM (active)

Cc1ccc(CSCc2ccc(C(=O)NCCC(C)C)o2)cc1
CC50 [11]: 20.2 µM (active)

c1ccc2nc(-c3ccncc3)ccc2c1
CC50 [11]: 25.4 µM (active)

Cc1ccc2c(c1)N(C(=O)CCC(=O)N1CCN(c3cccc(C)c3C)CC1)CCO2
CC50 [11]: 5.57 µM (active)

CCOc1ccc(OCC)c(NC(=O)CSc2nc3ccccc3c(=O)n2C)c1
EC50 [6]: 69.6 µM (active) | EC50 [4]: 29.5 µM (active) | EC50 [5]: 71.4 µM (active)

COc1ccc(C2C(C(=O)c3ccc(Cl)cc3)=C(O)C(=O)N2CCN2CCOCC2)c(OC)c1 (stereo not drawn)
AC50 ([3]; read-out: AC50): 39.8 µM (inconclusive) | AC50 [1]: 20 µM (inconclusive)

Cc1ccc(C(NC(=O)NC(C)c2ccccc2)C(Cl)(Cl)Cl)cc1F (stereo not drawn)
EC50 [6]: > 120 µM (not active) | EC50 [4]: 12 µM (active) | EC50 [5]: 18.7 µM (active) | EC50 [14]: 7.32 µM (active) | EC50 [15]: 3.25 µM (active) | EC50 [16]: 99.7 µM (active)

COc1ccc(CN(C)C[C@H]2OCCCC[C@H](C)Oc3ccc(NC(=O)Nc4ccc(C(F)(F)F)cc4)cc3C(=O)N([C@H](C)CO)C[C@@H]2C)cc1
AC50 [17]: 10.9 µM (active)

CCOc1ncccc1C(=O)Nc1ccc(F)cc1
CC50 [11]: 46.3 µM (active)

CCOc1ccc(-n2c(SCC(=O)Nc3nccs3)nc3c(c2=O)SCC3)cc1
EC50 [6]: 12.8 µM (active) | EC50 [4]: 11.7 µM (active) | EC50 [5]: 19.1 µM (active)

Cn1c(CCC(=O)Nc2ccc(N3CCOCC3)cc2)nc(=O)c2ccccc21
AC50 ([3]; read-out: AC50): 35.5 µM (inconclusive)

CC1CCCN(CC(O)COCC2COc3ccccc3O2)C1 (stereo not drawn)
AC50 ([3]; read-out: AC50): 5.01 µM (inconclusive)

C/C(CCN1CCCCc2nc(C)c(C)cc21)=N\O[C@@H](C)CN1CCCCc2nc(C)c(C)cc21
AC50 [2]: 5.01 µM (inconclusive)

CC(C)[C@H](N)c1nnc(SCc2ccc(Cl)cc2)o1
AC50 [2]: 28.2 µM (inconclusive)

Brc1ccccc1-c1nnc2sc(Cc3ccccc3)nn12
EC50 [6]: > 120 µM (not active) | EC50 [4]: 64.7 µM (active) | EC50 [5]: > 120 µM (not active)

CCO/C(O)=C(/C=N/c1ccccc1)[N+](=O)[O-]
AC50 ([3]; read-out: AC50): 14.1 µM (inconclusive)

COc1cccc(/C=N/NC(=O)CCCC(=O)NC2CCCCC2)c1
EC50 [6]: 15.6 µM (active) | EC50 [4]: > 120 µM (not active) | EC50 [5]: > 120 µM (not active)

NC(=O)N/N=C/c1ccc2cccc(OCc3ccccc3)c2n1
EC50 [6]: 61 µM (active) | EC50 [4]: 17.8 µM (active) | EC50 [5]: > 120 µM (not active)

CCC(C)C1C(C#N)=C(N)Oc2[nH]nc(C)c21 (stereo not drawn)
EC50 [18]: 189 µM (active)

N=C(NOC(=O)C12CC3CC(CC(C3)C1)C2)c1ccccc1
EC50 [18]: 90.5 µM (active)

Cc1ccc(C(=O)C[n+]2ccc(Cc3ccccc3)cc2)cc1
EC50 [6]: 10.5 µM (active) | EC50 [4]: 14.3 µM (active) | EC50 [5]: 13.7 µM (active)

Cc1cccc(NC(=O)c2[nH]cnc2C(=O)NCC(=O)OC(C)(C)C)c1
CC50 [11]: > 50 µM (active)

CSc1ccccc1OCc1cc(C(=O)N2CCc3c(Cl)cccc3C2)no1
AC50 [9]: 7.1 µM (active)

CCS(=O)(=O)c1ccc(OC)c(N=Nc2ccc(O)c3ncccc23)c1
AC50 [9]: 8.44 µM (active)

C[C@@H](NC(=O)c1[nH]cnc1C(=O)N[C@@H](Cc1ccccc1)C(=O)OC(C)(C)C)c1ccccc1
AC50 [17]: 5.32 µM (active)

O=C1CCCN1c1ccc(S(=O)(=O)Oc2cccc(Cl)c2)cc1[N+](=O)[O-]
AC50 [2]: 1.78 µM (inconclusive)

Cc1cc(Nc2ccc(Br)cc2)nc(-c2ccccc2O)n1
CC50 [11]: 31.9 µM (active)

CCN=C(S)NC1CC2CCCC(C1)N2Cc1ccco1 (stereo not drawn)
AC50 ([3]; read-out: AC50): 14.1 µM (inconclusive)

CC1CCCC=CC2CC(OC(=O)CN(C)C)CC2C(O)C=CC(=O)O1 (stereo not drawn)
AC50 [17]: < 0.26 µM (active)

COc1cc(/C=C/c2nc(O)nc(O)c2[N+](=O)[O-])ccc1OCCC(C)C
AC50 [10]: 5.94 µM (active) | CC50 [11]: 19.1 µM (active)

COc1cc(OC)c2cc(-c3ccncc3)cnc2c1
AC50 ([3]; read-out: AC50): 31.6 µM (inconclusive) | AC50 [1]: 0.316 µM (inconclusive)
